Experimental data from patent US11267811B2, “Small molecule inhibitors of galectin-3” (BRISTOL-MYERS SQUIBB COMPANY, priority 2017, dated 2022).
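Further: compounds preincubated 30 min with hGal-3, then 1 h with B-ASF, detection via terbium anti-His antibody and streptavidin d2. Control with B-ASF counts as full signal, omitting B-ASF as background.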

The compounds below were run against His-tagged recombinant human Gal-3 (hGal-3) (Homo sapiens (Human), UniProt P17931) (assay: Gal-3 HTRF assay (His-tagged hGal-3 binding to B-ASF)). Conditions: HTRF, hGal-3 15 nM, B-ASF 15 nM; read-out: hGal-3 IC50.
Sequence of His-tagged recombinant human Gal-3 (hGal-3) (P17931 whole entry): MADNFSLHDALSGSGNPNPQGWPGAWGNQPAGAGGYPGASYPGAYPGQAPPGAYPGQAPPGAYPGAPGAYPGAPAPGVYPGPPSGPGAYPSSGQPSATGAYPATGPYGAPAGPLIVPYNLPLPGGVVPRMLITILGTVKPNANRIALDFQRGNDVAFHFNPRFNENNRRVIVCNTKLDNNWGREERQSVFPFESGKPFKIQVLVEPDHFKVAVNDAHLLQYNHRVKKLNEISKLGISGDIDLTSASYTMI
In the case of `Cc1nc2cccc(-n3cnnc3[C@@H]3O[C@H](CO)[C@H](O)[C@H](n4cc(-c5cc(F)c(F)c(F)c5)nn4)[C@H]3O)c2s1` [Example 139], the IC50 is reported as 260 nM. In the case of `OC[C@H]1O[C@@H](c2nncn2-c2cc(F)cc(Cl)c2)[C@H](O)[C@@H](n2cc(-c3cc(F)c(F)c(F)c3)nn2)[C@H]1O` [Example 140], the IC50 is reported as 130 nM. For `OC[C@H]1O[C@@H](c2nncn2-c2ccc(N3CCNCC3)c(Cl)c2)[C@H](O)[C@@H](n2cc(-c3cc(F)c(F)c(F)c3)nn2)[C@H]1O` [Example 141, (2S,3R,4R,5R,6R)-2-(4-(3-chloro-4-(piperazin-1-yl)phenyl)-4H-1,2,4-triazol-3-yl)-6-(hydroxymethyl)-4-(4-(3,4,5-trifluorophenyl)-1H-1,2,3-triazol-1-yl)tetrahydro-2H-pyran-3,5-diol], the IC50 was 130 nM. Compound `Cc1nc2cc(-n3cnnc3[C@@H]3O[C@H](CO)[C@H](O)[C@H](n4cc(-c5cc(F)c(F)c(F)c5)nn4)[C@H]3O)ccc2s1` [Example 143] has an IC50 of 410 nM. With `COc1ccc(-n2cnnc2[C@@H]2O[C@H](CO)[C@H](O)[C@H](n3cc(-c4cc(F)c(F)c(F)c4)nn3)[C@H]2O)cc1Cl` [Example 145] the IC50 was 230 nM. For `CSc1cccc(-n2cnnc2[C@@H]2O[C@H](CO)[C@H](O)[C@H](n3cc(-c4cc(F)c(F)c(F)c4)nn3)[C@H]2O)c1` [Example 146], the IC50 was 50 nM. `CSc1cc(Cl)cc(-n2cnnc2[C@@H]2O[C@H](CO)[C@H](O)[C@H](n3cc(-c4cc(F)c(F)c(F)c4)nn3)[C@H]2O)c1` [Example 147] gave an IC50 of 60 nM. In the case of `Cc1nc2c(Cl)cc(-n3cnnc3[C@@H]3O[C@H](CO)[C@H](O)[C@H](n4cc(-c5cc(F)c(F)c(F)c5)nn4)[C@H]3O)cc2s1` [Example 148], the IC50 is reported as 80 nM. `COc1cccc(-n2cnnc2[C@@H]2O[C@H](CO)[C@H](O)[C@H](n3cc(-c4cc(F)c(F)c(F)c4)nn3)[C@H]2O)c1` [Example 152] gave an IC50 of 160 nM. `N#Cc1cccc(-n2cnnc2[C@@H]2O[C@H](CO)[C@H](O)[C@H](n3cc(-c4cc(F)c(F)c(F)c4)nn3)[C@H]2O)c1` [Example 153] gave an IC50 of 140 nM. With `OC[C@H]1O[C@@H](c2nncn2-c2cccc(F)c2)[C@H](O)[C@@H](n2cc(-c3cc(F)c(F)c(F)c3)nn2)[C@H]1O` [Example 154] the IC50 was 80 nM. Work on `Cc1cccc(-n2cnnc2[C@@H]2O[C@H](CO)[C@H](O)[C@H](n3cc(-c4cc(F)c(F)c(F)c4)nn3)[C@H]2O)c1` [Example 155] yielded an IC50 of 150 nM. `OC[C@H]1O[C@@H](c2nncn2-c2ccc(F)c(Cl)c2)[C@H](O)[C@@H](n2cc(-c3cc(F)c(F)c(F)c3)nn2)[C@H]1O` [Example 156] gave an IC50 of 50 nM. Work on `OC[C@H]1O[C@@H](c2nncn2Cc2nccs2)[C@H](O)[C@@H](n2cc(-c3cc(F)c(F)c(F)c3)nn2)[C@H]1O` [Example 158] yielded an IC50 of 2150 nM. `CC(=O)Nc1ccc(-n2cnnc2[C@@H]2O[C@H](CO)[C@H](O)[C@H](n3cc(-c4cc(F)c(F)c(F)c4)nn3)[C@H]2O)cc1O` [Example 159] gave an IC50 of 840 nM. With `Cc1nc2ccc(-n3cnnc3[C@@H]3O[C@H](CO)[C@H](O)[C@H](n4cc(-c5cc(F)c(F)c(F)c5)nn4)[C@H]3O)cc2[nH]1` [Example 160] the IC50 was 330 nM. Compound `COC(=O)c1cc2ccc(-n3cnnc3[C@@H]3O[C@H](CO)[C@H](O)[C@H](n4cc(-c5cc(F)c(F)c(F)c5)nn4)[C@H]3O)cc2s1` [Example 163] has an IC50 of 220 nM. Work on `OC[C@H]1O[C@@H](c2nncn2-c2ccc3cn[nH]c3c2)[C@H](O)[C@@H](n2cc(-c3cc(F)c(F)c(F)c3)nn2)[C@H]1O` [Example 164] yielded an IC50 of 630 nM. For `OC[C@H]1O[C@@H](c2nncn2-c2cccc3cc[nH]c23)[C@H](O)[C@@H](n2cc(-c3cc(F)c(F)c(F)c3)nn2)[C@H]1O` [Example 165], the IC50 was 930 nM. `Cn1ncc2ccc(-n3cnnc3[C@@H]3O[C@H](CO)[C@H](O)[C@H](n4cc(-c5cc(F)c(F)c(F)c5)nn4)[C@H]3O)cc21` [Example 166] was tested, and the IC50 was 150 nM. `Cn1cc2ccc(-n3cnnc3[C@@H]3O[C@H](CO)[C@H](O)[C@H](n4cc(-c5cc(F)c(F)c(F)c5)nn4)[C@H]3O)cc2n1` [Example 167] showed an IC50 of 300 nM. Compound `Cc1nc2cc(-n3cnnc3[C@@H]3O[C@H](CO)[C@H](O)[C@H](n4cc(-c5cc(F)c(F)c(F)c5)nn4)[C@H]3O)ccc2n1C` [Example 168] has an IC50 of 500 nM. For `Cc1nc2ccc(-n3cnnc3[C@@H]3O[C@H](CO)[C@H](O)[C@H](n4cc(-c5cc(F)c(F)c(F)c5)nn4)[C@H]3O)cc2n1C` [Example 169], the IC50 was 280 nM. With `OCCn1cnnc1[C@@H]1O[C@H](CO)[C@H](O)[C@H](n2cc(-c3cc(F)c(F)c(F)c3)nn2)[C@H]1O` [Example 170, (2S,3R,4R,5R,6R)-2-(4-(2-hydroxyethyl)-4H-1,2,4-triazol-3-yl)-6-(hydroxymethyl)-4-(4-(3,4,5-trifluorophenyl)-1H-1,2,3-triazol-1-yl)tetrahydro-2H-pyran-3,5-diol] the IC50 was 2000 nM. For `OC[C@H]1O[C@@H](c2ncnn2[C@@H]2CCCC[C@H]2O)[C@H](O)[C@@H](n2cc(-c3cc(F)c(F)c(F)c3)nn2)[C@H]1O` [Example 171], the IC50 was 2020 nM. With `OC[C@H]1O[C@@H](c2ncnn2C2CCNCC2)[C@H](O)[C@@H](n2cc(-c3cc(F)c(F)c(F)c3)nn2)[C@H]1O` [Example 172] the IC50 was 3840 nM. Compound `OC[C@H]1O[C@@H](c2ncnn2-c2cccc(Cl)c2)C[C@@H](n2cc(-c3cc(F)c(F)c(F)c3)nn2)[C@H]1O` [Example 173, (2R,3R,4R,6R)-6-(1-(3-chlorophenyl)-1H-1,2,4-triazol-5-yl)-2-(hydroxymethyl)-4-(4-(3,4,5-trifluorophenyl)-1H-1,2,3-triazol-1-yl)tetrahydro-2H-pyran-3-ol] has an IC50 of 180 nM. Compound `OC[C@H]1O[C@@H](c2ncnn2-c2ccc(Cl)c(Cl)c2)C[C@@H](n2cc(-c3cc(F)c(F)c(F)c3)nn2)[C@H]1O` [Example 174] has an IC50 of 300 nM. `NC(=O)c1cccc(-n2ncnc2[C@H]2C[C@@H](n3cc(-c4cc(F)c(F)c(F)c4)nn3)[C@@H](O)[C@@H](CO)O2)c1` [Example 175] showed an IC50 of 650 nM. With `Cc1nc2ccc(-n3ncnc3[C@H]3C[C@@H](n4cc(-c5cc(F)c(F)c(F)c5)nn4)[C@@H](O)[C@@H](CO)O3)cc2s1` [Example 176] the IC50 was 40 nM. `OC[C@H]1O[C@@H](c2ncnn2-c2cc(Cl)ccc2Cl)C[C@@H](n2cc(-c3cc(F)c(F)c(F)c3)nn2)[C@H]1O` [Example 177] gave an IC50 of 130 nM. Work on `Cc1ccc(Cl)cc1-n1ncnc1[C@H]1C[C@@H](n2cc(-c3cc(F)c(F)c(F)c3)nn2)[C@@H](O)[C@@H](CO)O1` [Example 178] yielded an IC50 of 250 nM. With `OC[C@H]1O[C@@H](c2ncnn2-c2cc(Cl)ccc2F)C[C@@H](n2cc(-c3cc(F)c(F)c(F)c3)nn2)[C@H]1O` [Example 179] the IC50 was 250 nM. Compound `COc1ccc(Cl)cc1-n1ncnc1[C@H]1C[C@@H](n2cc(-c3cc(F)c(F)c(F)c3)nn2)[C@@H](O)[C@@H](CO)O1` [Example 180] has an IC50 of 210 nM. With `OC[C@H]1O[C@@H](c2ncnn2-c2ccc3ncsc3c2)C[C@@H](n2cc(-c3cc(F)c(F)c(F)c3)nn2)[C@H]1O` [Example 181] the IC50 was 40 nM. In the case of `Cc1nc2cc(Cl)c(-n3ncnc3[C@H]3C[C@@H](n4cc(-c5cc(F)c(F)c(F)c5)nn4)[C@@H](O)[C@@H](CO)O3)cc2s1` [Example 182], the IC50 is reported as 120 nM. Work on `COc1ccc(Cl)cc1-n1nc(C)nc1[C@H]1C[C@@H](n2cc(-c3cc(F)c(F)c(F)c3)nn2)[C@@H](O)[C@@H](CO)O1` [Example 183, (2R,3R,4R,6R)-6-(1-(5-chloro-2-methoxyphenyl)-3-methyl-1H-1,2,4-triazol-5-yl)-2-(hydroxymethyl)-4-(4-(3,4,5-trifluorophenyl)-1H-1,2,3-triazol-1-yl)tetrahydro-2H-pyran-3-ol] yielded an IC50 of 160 nM. `Cc1nc([C@H]2C[C@@H](n3cc(-c4cc(F)c(F)c(F)c4)nn3)[C@@H](O)[C@@H](CO)O2)n(-c2cc(Cl)ccc2C)n1` [Example 184] showed an IC50 of 90 nM. Compound `Cc1nc([C@H]2C[C@@H](n3cc(-c4cc(F)c(F)c(F)c4)nn3)[C@@H](O)[C@@H](CO)O2)n(-c2cc(Cl)ccc2F)n1` [Example 185] has an IC50 of 170 nM. `Cc1nc([C@H]2C[C@@H](n3cc(-c4cc(F)c(F)c(F)c4)nn3)[C@@H](O)[C@@H](CO)O2)n(-c2ccc3ncsc3c2)n1` [Example 186] showed an IC50 of 50 nM. Compound `Cc1nc([C@H]2C[C@@H](n3cc(-c4cc(F)c(F)c(F)c4)nn3)[C@@H](O)[C@@H](CO)O2)n(-c2ccc3nc(C)sc3c2)n1` [Example 187] has an IC50 of 110 nM. For `CO[C@@H]1[C@@H](n2cc(-c3cc(F)c(F)c(F)c3)nn2)[C@@H](O)[C@@H](CO)O[C@H]1c1ncnn1-c1cccc(Cl)c1` [Example 189], the IC50 was 90 nM. Compound `CO[C@@H]1[C@@H](n2cc(-c3cc(F)c(F)c(F)c3)nn2)[C@@H](O)[C@@H](CO)O[C@H]1c1ncnn1-c1ccc(Cl)c(Cl)c1` [Example 190] has an IC50 of 180 nM. With `CO[C@@H]1[C@@H](n2cc(-c3cc(F)c(F)c(F)c3)nn2)[C@@H](O)[C@@H](CO)O[C@H]1c1ncnn1-c1ccc2nc(C)sc2c1` [Example 191] the IC50 was 60 nM. In the case of `CO[C@@H]1[C@@H](n2cc(-c3cc(F)c(F)c(F)c3)nn2)[C@@H](O)[C@@H](CO)O[C@H]1c1ncnn1-c1ccc2ncsc2c1` [Example 192], the IC50 is reported as 40 nM. Compound `Cc1nc2ccc(-n3ncnc3[C@@H]3O[C@H](CO)[C@H](O)[C@H](n4cc(C(=O)NC5CC5)nn4)[C@H]3O)cc2s1` [Example 193, N-cyclopropyl-1-((2R,3R,4R,5R,6S)-3,5-dihydroxy-2-(hydroxymethyl)-6-(1-(2-methylbenzo[d]thiazol-6-yl)-1H-1,2,4-triazol-5-yl)tetrahydro-2H-pyran-4-yl)-1H-1,2,3-triazole-4-carboxamide] has an IC50 of 180 nM. With `Cc1nc2ccc(-n3ncnc3[C@@H]3O[C@H](CO)[C@H](O)[C@H](n4cc(C(N)=O)nn4)[C@H]3O)cc2s1` [Example 194] the IC50 was 4090 nM. With `CNC(=O)c1cn([C@H]2[C@@H](O)[C@@H](CO)O[C@@H](c3ncnn3-c3ccc4nc(C)sc4c3)[C@@H]2O)nn1` [Example 195] the IC50 was 1160 nM. In the case of `Cc1nc2ccc(-n3ncnc3[C@@H]3O[C@H](CO)[C@H](O)[C@H](n4cc(C(=O)N(C)C)nn4)[C@H]3O)cc2s1` [Example 196], the IC50 is reported as 5650 nM. Work on `Cc1nc2ccc(-n3ncnc3[C@@H]3O[C@H](CO)[C@H](O)[C@H](n4cc(C(=O)NC5CCCC5)nn4)[C@H]3O)cc2s1` [Example 197] yielded an IC50 of 1320 nM.
